Read-outs that look alike come from different tables or passages of the source.
Columns and labels:
[1] = test system: central nervous system; assay: Central nervous system stimulatory effects: pentobarbital-induced loss of righting reflex (LRR); type: in vivo, male Sprague-Dawley rats; conditions: for Loss of righting reflex, Onset / Loss of righting reflex, Duration: with 35 mg/kg pentobarbital s.c., LF-10, LF-14 1.1 mg/kg, 4-AP, 3,4-DAP 1.5 mg/kg, mean; for Loss of righting reflex, Onset: control 11.4; for Loss of righting reflex, Duration: control 71.9; for effect on pentobarbital induced LRR / barbiturate CNS effects (in words): with pentobarbital 35 mg/kg s.c.
Procedure: Tests were conducted to determine the stimulatory effects of the compounds of the present invention upon the central nervous system. Male Sprague-Dawley rats were injected subcutaneously with 35 mg/kg of pentobarbital alone, or together with 1.1 mg/kg of LF-10 or LF-14, or 1.5 mg/kg of 4-AP or 3,4-DAP (Foldes, et al., Anesthesiology 57:A-273, 1982). The time of onset and duration of the loss of righting reflex (LRR) was observed.

[2] = test system: phrenic nerve-hemidiaphragm preparations; assay: Antagonism of relaxant-induced neuromuscular block in vitro, rat phrenic nerve-hemidiaphragm; type: cell-based, male Sprague-Dawley rats; design: ED 50 of Antagonists, In Vitro: unit not given here; conditions: for Relative Molar Potency, In Vitro: 4-Aminopyridine = 1.0; for ED 50 of Antagonists, In Vitro: means + SEM of 4 experiments, concentration raising twitch tension to 50% of control in >90% steady state block
Source text: (§1) In in vitro tests to determine neuromuscular potency, phrenic nerve-hemidiaphragm preparations from male Sprague-Dawley rats were suspended in modified Krebs solution. In vivo experiments focused on the sciatic nerve-tibialis anterior muscle preparations in male Sprague-Dawleyrats. In each case, stimulation of nerves was accomplished via bipolar platinum electrodes, with supramaximal impulses of 0.2 msec duration at 0.1 HZ, and the isometric twitches were continuously recorded. Greater than 90 % steady state neuromuscular block was achieved either by addition of appropriate concentrations (in vitro) or continuous i.v. infusions (in vivo) of either d-tubocurarine or pancuronium. Antagonism of the induced neuromuscular block was accomplished by the addition of increments of 4-AP, 3,4-DAP, LF-10 or LF-14.
(§2) **The concentration in vitro or the i.v. dose that will increase twitch
(§3) tension to 50% of control in the presence of the concentration or dose of
(§4) muscle relaxant that caused a >90% steady state block.

[3] = test system: sciatic nerve-tibialis anterior muscle preparations; assay: Antagonism of relaxant-induced neuromuscular block in vivo, rat sciatic nerve-tibialis anterior muscle; design: species or system male Sprague-Dawley rats; conditions: for ED50: Rattus norvegicus, iv, read-out: ED 50 of Antagonists, In Vivo; for ED50 / ED 50 of Antagonists, In Vivo: i.v., means + SEM of 4 experiments, dose raising twitch tension to 50% of control in >90% steady state block; for Relative Molar Potency, In Vivo: 4-Aminopyridine = 1.0
Source text: as §1, §2, §3, §4

[4] = test system: anticholinesterase activity; conditions: background; cited from earlier work
[5] = test system: neuromuscular blocks; conditions: background; Bowman and Savage 1981; Agoston et al. 1978; cited from earlier work
[6] = background; Marshall 1982; cited from earlier work
[7] = molar basis, nondepolarizing muscle relaxants
[8] = neuromuscular blocks induced by curare

Molecule | Loss of righting reflex, Onset [1] | Loss of righting reflex, Duration [1] | effect on pentobarbital induced LRR / barbiturate CNS effects (in words) [1] | Relative Molar Potency, In Vitro ([2]; muscle relaxant Pancuronium) | Relative Molar Potency, In Vitro ([2]; muscle relaxant d-Tubocurarine) | ED50 ([3]; muscle relaxant Pancuronium) | ED50 ([3]; muscle relaxant d-Tubocurarine) | Relative Molar Potency, In Vivo ([3]; muscle relaxant Pancuronium) | Relative Molar Potency, In Vivo ([3]; muscle relaxant d-Tubocurarine) | other results
CN(C)C(=O)Nc1cnccc1N [LF-14, 1,1-Dimethyl-3-(4-amino-3-pyridyl)-urea] | 12.4 min | 75.7 min | substantially no effect on the pentobarbital induced LRR | 17 | 17 | 0.04 mg/kg | 0.04 mg/kg | 8.2 | 9 | stimulatory effects on the central nervous system (in words) ([1]; rat, in vivo): no stimulatory effects on the central nervous system; neuromuscular potency / antagonism (in words), in vitro [2, 7]: greatest both in vitro and in vivo; molar potency relative to 4-AP, in vitro [2, 8]: 17 times that of 4-AP; neuromuscular potency / antagonism (in words), in vivo [3, 7]: greatest both in vitro and in vivo; molar potency relative to 4-AP, in vivo [3, 8]: 9 times that of 4-AP
Nc1ccncc1N [3,4-Diaminopyridine, 3,4-diaminopyridine, reference compound] | 13.3 min | 78.9 min | – | 2.7 | 2.1 | 0.18 mg/kg | 0.12 mg/kg | 0.8 | 1.6 | –
Nc1ccncc1 [4-Aminopyridine, 4-aminopyridine, reference compound] | 15.2 min | 42.0 min | significantly (p<0.001) reduce the central nervous system effects of barbiturates | – | – | 0.13 mg/kg | 0.17 mg/kg | – | – | anticholinesterase activity (in words) [4]: no anticholinesterase activity; reversal of muscle relaxants and antagonism of other neuromuscular blocks (in words) [5]: not only reverse the side effects of clinically used muscule relaxants, but also antagonize the effects of the other neuromuscular blocks listed above; undesirable side effects (in words) [6]: elevated blood pressure, anxiety, insomnia, and a level of central nervous system stimulation which may manifest itself ultimately in convulsions
1,1-dimethyl-(3,4-pyridyl)-urea [LF-10] | 14.8 min | 63.7 min | some effect on shortening the duration of LRR | 3.4 | 4.3 | – | – | 2.3 | 7.5 | ED 50 of Antagonists, In Vitro ([2]; muscle relaxant Pancuronium): 0.5; ED 50 of Antagonists, In Vitro ([2]; muscle relaxant d-Tubocurarine): 0.4; ED 50 of Antagonists, In Vivo ([3]; muscle relaxant Pancuronium): 0.13 + 0.00 mg/Kg; ED 50 of Antagonists, In Vivo ([3]; muscle relaxant d-Tubocurarine): 0.09 + 0.00 mg/Kg

From patent publication US4734275A, “Anti-curare agents” (priority 1986, dated 1988)
